Legend:
Mus musculus [1] = assay: Lowest daily intraperitoneal dose causing hypervitaminosis A symptoms was determined in a 2-week period in mice; type: functional
Mus musculus [2] = assay: Antipapilloma activity was determined after intraperitoneal administration in mice; type: functional; details: ip

Row | Structure (SMILES) | Dose (Mus musculus [1]) [mg/kg] | ED50 (Mus musculus [2]) [mg/kg]
1 | CCOC(=O)/C=C(C)/C=C/C=C(C)/C=C/c1c(C)sc(C)c1C | 200 | 75
2 | CC1=C(/C=C/C(C)=C/C=C/C(C)=C\C(=O)O)C(C)(C)CCC1 [ISOTRETINOIN] | 400 | 800
3 | CCOC(=O)/C=C(C)/C=C/C=C(C)/C=C/c1c(Cl)cc(OC)c(C)c1Cl | 12 | 6
4 | COc1cc(C)c(/C=C/C(C)=C/C=C(F)/C(C)=C/C(=O)O)c(C)c1C | 25 | 11.5
5 | CC1=C(/C=C/C(C)=C/C=C/C(C)=C/C(=O)O)C(C)(C)CCC1 [TRETINOIN] | 80 | 400
6 | CCOC(=O)c1ccc(/C=C(\C)c2ccc3c(c2)C(C)(C)CCC3(C)C)cc1 [AROTINOID] | 0.1 | 0.05
7 | CCOC(=O)/C=C(C)/C=C/C=C(C)/C=C/c1c(C)cc(OC)c(C)c1C [ETRETINATE] | 50 | 25

— ChEMBL document CHEMBL1122165, “Retinoids at the threshold: their biological significance and therapeutic potential” (J Med Chem, 1982)
